In US20050101542A1, “Combination therapy for controlling appetites” (Regents of the University of California, priority 2002, published 2005):

What was measured:
c-fos mRNA = c-fos mRNA in situ hybridization in rat brain; format: in vivo; settings: 10 mg per kg i.p., 60 min; PVN, supraoptic nucleus, NST
Method: In situ hybridization. Rats were accustomed to the handling and injection procedure for five days. On day six, vehicle or drug OEA (10 mg per kg, i.p.), or oleic acid (10 mg per kg) was administered, and the rats killed 60 min later by decapitation under anesthesia. In situ hybridization analyses were conducted using ^35S-labeled cRNA probes for c-fos (Guthrie et al., Proc. Natl. Acad. Sci. U.S.A., 90:3329-3333 (1993)) and choline acetyl transferase (ChAT) (Lauterborn et al., Brain Res. Mol. Brain Res., 17:59-69 (1993)). Average hybridization densities were determined from at least three tissue sections per rat. Statistical significance was evaluated using one-way analysis of variance (ANOVA) followed by the Tukey-Kramer post-hoc test for paired comparisons.
The compounds of the invention may use peripheral sensory inputs to suppress appetite. Peripheral sensory inputs related to appetite suppression recruit several CNS structures, which include the nucleus of the solitary tract (NST) in the brainstem and the arcuate and paraventricular (PVN) Nuclei in the hypothalamus (Schwartz et al., Nature, 404:661-671 (2000)). To identify the brain pathways engaged during OEA-induced hypophagia, mRNA levels for the activity regulated gene c-fos (Curran et al., Oncogene, 2:79-84 (1987)) were mapped by in situ hybridization after systemic administration of OEA, oleic acid or vehicle. […]

human PPARδ = biological target: T1, human PPARδ (Homo sapiens, UniProt Q03181); assay: GAL4 chimeric receptor transactivation assay in HeLa cells, PPARδ; format: cell-based; settings: read-out: EC50 for PPARβ activation
T1 construct: expressed in transfected cells; host or cells: HeLa (clonal reporter line HLR, stably transfected with pFA-PPARδ)
T1 sequence (Q03181 211-439 limits assumed): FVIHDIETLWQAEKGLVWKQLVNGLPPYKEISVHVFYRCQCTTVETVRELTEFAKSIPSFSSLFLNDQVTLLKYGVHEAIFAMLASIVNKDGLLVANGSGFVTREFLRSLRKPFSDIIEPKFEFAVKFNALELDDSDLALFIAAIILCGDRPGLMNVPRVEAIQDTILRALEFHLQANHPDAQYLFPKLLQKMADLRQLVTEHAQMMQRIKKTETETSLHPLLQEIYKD
Method: Eighteen hours following transfection, the culture media was replaced with supplemented DMEM containing hygromycin (100 μg-ml^−1, Calbiochem). After 4 weeks in culture, the surviving clones were isolated and analyzed by luciferase assay. […] The cells were cultured in supplemented DMEM containing hygromycin and G418. For transactivation assays, cells were seeded in 6-well plates (50,000 cells per well) and incubated for 7 hours in supplemented DMEM containing hygromycin and G418, plus appropriate concentrations of test compounds. Dual-luciferase reporter assay system (Promega) and an MLX Microtiter® plate luminometer (Dynex) were used to determine luciferase activity in cell lysates.

[1] = system: retinoid X receptor (RXR); assay: GAL4 chimeric receptor transactivation assay in HeLa cells, RXR; format: cell-based, human
Method: Transactivator plasmids pFA-PPARα, pFA-PPARδ, pFA-PPARγ and pFA-RXR, which encoded for the […] Of hPPARα ? ((499-1404), hPPARδ (412-1320), hPPARγ (610-1434) and hRXR (402-1389) fused to the DNA-binding domain (residues 1-147) Of yeast GAL4 under control of the human cytomegalovirus (CMV) promoter were generated. The plasmids contained a neomycin-resistance gene to provide stable selection with G418 (200 μg-ml^−1; Calbiochem). The HeLa cells were cultured in Dulbecco's-modified Eagles's medium (DMEM) supplemented with fetal bovine serum (10%). The cells were transfected with Fugene 6 (3 μl, Roche) Containing the pFR-luc plasmid (1 μg, Stratagene). Eighteen hours following transfection, the culture media was replaced with supplemented DMEM containing hygromycin (100 μg-ml^−1, Calbiochem). After 4 weeks in culture, the surviving clones were isolated and analyzed by luciferase assay. […] The cells were cultured in supplemented DMEM containing hygromycin and G418. For transactivation assays, cells were seeded in 6-well plates (50,000 cells per well) and incubated for 7 hours in supplemented DMEM containing hygromycin and G418, plus appropriate concentrations of test compounds. Dual-luciferase reporter assay system (Promega) and an MLX Microtiter® plate luminometer (Dynex) were used to determine luciferase activity in cell lysates. […]

## CCCCCCCC/C=C\CCCCCCCC(=O)NCCO [OEA, Z-2-hydroxyethyl octadec-9-enamide]
c-fos mRNA
  c-fos mRNA levels in brain regions: highly localized increase
Human PPARδ
  EC50: 1100 ± 100 nM
[1]
  effect on RXR: no effect
